Measured values reported in PubChem BioAssay AID330 (DTP/NCI, 2004).
Values joined by “and” are separate entries in the source; they are usually repeats but may differ in a detail not shown here. Equal entries are not always repeated. Inconclusive results and toxic doses are left out. How the source made its calls: active means survival T/C of 150% or more; inactive means T/C below 125% in these data.

Tested on: P388 leukemia ip, CD2F1 mice, survival T/C
Assay: NCI In Vivo Anticancer Drug Screen. Data for tumor model P388 Leukemia (intraperitoneal) in CD2F1 (CDF1) mice
Conditions: endpoint: median survival time, higher = longer survival
In short: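 Mice carrying the transplanted tumor received test compound or vehicle. Survival was recorded in each group, and the value is the treated-group measurement divided by that of the vehicle-treated control group.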

[1] = dose: 50.0 mg/kg/injection, schedule: Q01DX005 (ip), vehicle: Klucel (hydroxypropylcellulose) (HPC)
[2] = dose: 100.0 mg/kg/injection, schedule: Q01DX005 (ip), vehicle: Klucel (hydroxypropylcellulose) (HPC)
[3] = dose: 60.0 mg/kg/injection, schedule: Q01DX005 (ip), vehicle: saline with Tween-80
[4] = dose: 120.0 mg/kg/injection, schedule: Q01DX005 (ip), vehicle: saline with Tween-80
[5] = dose: 240.0 mg/kg/injection, schedule: Q01DX005 (ip), vehicle: saline with Tween-80
[6] = dose: 60.0 mg/kg/injection, schedule: Q01DX005 (ip), vehicle: Klucel (hydroxypropylcellulose) (HPC)
[7] = dose: 120.0 mg/kg/injection, schedule: Q01DX005 (ip), vehicle: Klucel (hydroxypropylcellulose) (HPC)
[8] = dose: 240.0 mg/kg/injection, schedule: Q01DX005 (ip), vehicle: Klucel (hydroxypropylcellulose) (HPC)
[9] = dose: 50.0 mg/kg/injection, schedule: Q01DX009 (ip), vehicle: saline with Tween-80
[10] = dose: 50.0 mg/kg/injection, schedule: Q01DX005 (ip), vehicle: saline
[11] = dose: 100.0 mg/kg/injection, schedule: Q01DX005 (ip), vehicle: saline
[12] = dose: 200.0 mg/kg/injection, schedule: Q01DX005 (ip), vehicle: saline
[13] = dose: 100.0 mg/kg/injection, schedule: Q01DX009 (ip), vehicle: saline with Tween-80
[14] = dose: 200.0 mg/kg/injection, schedule: Q01DX009 (ip), vehicle: saline with Tween-80
[15] = dose: 50.0 mg/kg/injection, schedule: Q01DX005 (ip), vehicle: saline with Tween-80
[16] = dose: 100.0 mg/kg/injection, schedule: Q01DX005 (ip), vehicle: saline with Tween-80
[17] = dose: 200.0 mg/kg/injection, schedule: Q01DX005 (ip), vehicle: saline with Tween-80
[18] = dose: 100.0 mg/kg/injection, schedule: Q01DX001 (ip), vehicle: Klucel (hydroxypropylcellulose) (HPC)
[19] = dose: 200.0 mg/kg/injection, schedule: Q01DX001 (ip), vehicle: Klucel (hydroxypropylcellulose) (HPC)
[20] = dose: 400.0 mg/kg/injection, schedule: Q01DX001 (ip), vehicle: Klucel (hydroxypropylcellulose) (HPC)
[21] = dose: 100.0 mg/kg/injection, schedule: Q04DX003 (ip), vehicle: Klucel (hydroxypropylcellulose) (HPC)
[22] = dose: 200.0 mg/kg/injection, schedule: Q04DX003 (ip), vehicle: Klucel (hydroxypropylcellulose) (HPC)
[23] = dose: 400.0 mg/kg/injection, schedule: Q04DX003 (ip), vehicle: Klucel (hydroxypropylcellulose) (HPC)

Measured: T/C

CCCN(CCC)CCCCCO
inactive: dose: 50.0 mg/kg/injection, schedule: Q04DX003 (ip), vehicle: saline with Tween-80 104 % of control | dose: 100.0 mg/kg/injection, schedule: Q04DX003 (ip), vehicle: saline with Tween-80 100 % of control | dose: 200.0 mg/kg/injection, schedule: Q04DX003 (ip), vehicle: saline with Tween-80 100 % of control

CN1C(=O)CN(CN2CCOCC2)C1=O
inactive: [1] 106 % of control | [2] 115 % of control | dose: 200.0 mg/kg/injection, schedule: Q01DX005 (ip), vehicle: Klucel (hydroxypropylcellulose) (HPC) 117 % of control

Cc1ccc(C)c(OP2(=O)NC3CCCCC3N2)c1 (centres undefined)
inactive: dose: 100.0 mg/kg/injection, schedule: Q04DX002 (ip), vehicle: Klucel (hydroxypropylcellulose) (HPC) 91 % of control | dose: 200.0 mg/kg/injection, schedule: Q04DX002 (ip), vehicle: Klucel (hydroxypropylcellulose) (HPC) 89 % of control

O=C(O)C1OC(N(O)c2ccc(Oc3ccc(Cl)cc3)cc2)C(O)C(O)C1O (centres undefined)
inactive: [3] 106 % of control | [4] 100 % of control | [5] 100 % of control

COc1ccc(NP2(=O)N(Cc3ccc(Cl)cc3)CCCN2Cc2ccc(Cl)cc2)cc1
inactive: [1] 100 % of control | [2] 88 % of control

CN1CNC(=O)c2n[nH]nc21
inactive: dose: 12.5 mg/kg/injection, schedule: Q04DX002 (ip), vehicle: Klucel (hydroxypropylcellulose) (HPC) 99 % of control | dose: 25.0 mg/kg/injection, schedule: Q04DX002 (ip), vehicle: Klucel (hydroxypropylcellulose) (HPC) 108 % of control | dose: 50.0 mg/kg/injection, schedule: Q04DX002 (ip), vehicle: Klucel (hydroxypropylcellulose) (HPC) 100 % of control and 102 % of control

CCC(=O)N1C(=O)C(C)C23c4cc(OC)c(OC)cc4C(=O)N2CCCN13 (centres undefined)
inactive: [6] 100 % of control | [7] 94 % of control | [8] 90 % of control

NC12CCC(c3ccccc31)c1ccccc12
inactive: [6] 95 % of control | [7] 102 % of control | [8] 93 % of control

CC(=O)c1ccc(N/N=[N+](/C)[O-])cc1
inactive: [3] 99 % of control | [4] 101 % of control | [5] 99 % of control

Cc1cc(=O)oc2cc(OCc3c(F)cccc3Cl)ccc12
inactive: [3] 97 % of control | [4] 90 % of control | [5] 91 % of control

COc1ccc(CC2c3cc(OC)c(OC)cc3CCN2C)cc1OC (centres undefined)
inactive: dose: 1.5 mg/kg/injection, schedule: Q01DX005 (ip), vehicle: saline with Tween-80 97 % of control | dose: 3.0 mg/kg/injection, schedule: Q01DX005 (ip), vehicle: saline with Tween-80 98 % of control | dose: 6.0 mg/kg/injection, schedule: Q01DX005 (ip), vehicle: saline with Tween-80 99 % of control | [9] 91 % of control

CCC(=O)OCCN(CCOC(=O)CC)C(=O)C(C)OC(=O)CC (centres undefined)
inactive: dose: 25.0 mg/kg/injection, schedule: Q01DX005 (ip), vehicle: saline 105 % of control | [10] 110 % of control | [11] 105 % of control | [12] 110 % of control

Cc1cc(N(CCO)CCO)c2ccc3ccccc3c2n1
inactive: [9] 101 % of control | [13] 108 % of control | [14] 97 % of control

OC1c2ccccc2OC2(N3CCCC3)CCCCC12 (centres undefined)
inactive: [9] 98 % of control | [13] 94 % of control | [14] 91 % of control

CN(C)c1ccc(/C=N/NC(=O)CNC(=O)n2ccnc2)cc1
inactive: [15] 99 % of control | [16] 94 % of control | [17] 94 % of control

COC(=O)C1=C(C)OC2OCCC12 (centres undefined)
inactive: [3] 110 % of control | [4] 101 % of control | [5] 102 % of control

COc1ccc(C(OC)c2cc(C(C)(C)C)c(O)c(C(C)(C)C)c2)cc1 (centres undefined)
inactive: [15] 102 % of control | [16] 109 % of control | [17] 112 % of control

O=c1[nH]c(N[N+](=O)[O-])nc(-c2ccccc2)c1Br
inactive: [3] 98 % of control | [4] 100 % of control | [5] 99 % of control

COc1ccccc1C1OC2=C(Nc3ccccc3N2)C1=O (centres undefined)
inactive: dose: 30.0 mg/kg/injection, schedule: Q01DX005 (ip), vehicle: Klucel (hydroxypropylcellulose) (HPC) 101 % of control | [6] 97 % of control and 98 % of control | [7] 91 % of control | [8] 92 % of control

C[As](C)SC1CC(OC(=O)c2ccccc2)C(OC(=O)c2ccccc2)C(COC(=O)c2ccccc2)O1 (centres undefined)
inactive: [9] 100 % of control | [13] 106 % of control | [14] 105 % of control

COc1nc(N)c2ncn(C3CCCO3)c2n1 (centres undefined)
inactive: dose: 12.5 mg/kg/injection, schedule: Q01DX001 (ip), vehicle: Klucel (hydroxypropylcellulose) (HPC) 100 % of control | dose: 25.0 mg/kg/injection, schedule: Q01DX001 (ip), vehicle: Klucel (hydroxypropylcellulose) (HPC) 106 % of control

CCOC(=O)CSc1nnc(-c2cc(OC)c(OC)c(OC)c2)o1
inactive: [18] 98 % of control | [19] 104 % of control | [20] 92 % of control

O=[N+]([O-])CC(c1ccccc1)C(C[N+](=O)[O-])c1ccccc1 (centres undefined)
inactive: dose: 6.25 mg/kg/injection, schedule: Q01DX005 (ip), vehicle: saline with Tween-80 100 % of control | dose: 12.5 mg/kg/injection, schedule: Q01DX005 (ip), vehicle: saline with Tween-80 87 % of control | dose: 25.0 mg/kg/injection, schedule: Q01DX005 (ip), vehicle: saline with Tween-80 95 % of control | [15] 91 % of control | [16] 91 % of control and 86 % of control

O=C(CC(O)(c1ccccc1)c1ccccc1)Sc1ccccc1
inactive: [21] 110 % of control | [22] 105 % of control | [23] 105 % of control

CCOC(=O)C(=CN(C)c1ccc(Cl)cc1)C(=O)OCC
inactive: dose: 6.25 mg/kg/injection, schedule: Q01DX009 (ip), vehicle: saline with Tween-80 102 % of control | dose: 12.5 mg/kg/injection, schedule: Q01DX009 (ip), vehicle: saline with Tween-80 94 % of control | dose: 25.0 mg/kg/injection, schedule: Q01DX009 (ip), vehicle: saline with Tween-80 103 % of control | dose: 200.0 mg/kg/injection, schedule: Q01DX009 (ip), vehicle: saline 97 % of control

O=S1(=O)c2cccc(c2)NC(=S)/C([n+]2ccccc2)=C(/[O-])c2ccc(cc2)CC2CCCCN21 (centres undefined)
inactive: [1] 94 % of control | [2] 87 % of control

CCOC(=O)C(C)n1ncnn1 (centres undefined)
inactive: [10] 107 % of control | [11] 102 % of control | [12] 98 % of control

O=C1COCC(=O)OCCOCCOCCO1
inactive: [21] 100 % of control | [22] 100 % of control | [23] 100 % of control

CC(=O)NCC1(C)CCCC2(C)C3=CC(=O)C(C(C)C)=CC3(O)CCC12 (centres undefined)
inactive: [18] 98 % of control | [19] 90 % of control | [20] 94 % of control

CN(C)c1c2ccccc2c(NC=O)c2ccccc12
inactive: [6] 102 % of control | [7] 95 % of control | [8] 86 % of control

O/N=C(/Cc1nc2cc(Cl)c(Cl)cc2nc1C/C(=N/O)c1ccc(Cl)cc1)c1ccc(Cl)cc1
inactive: [3] 99 % of control | [4] 99 % of control | [5] 107 % of control

O=C(NCCc1nc(-c2nc(C(=O)O)cs2)cs1)c1ccccc1
inactive: [13] 100 % of control | [14] 100 % of control | dose: 400.0 mg/kg/injection, schedule: Q01DX009 (ip), vehicle: saline with Tween-80 90 % of control

CCCCCCCSc1ncnc2c1ncn2C(=O)Sc1ccccc1
inactive: [15] 104 % of control | [16] 99 % of control | [17] 107 % of control

CC(C)(C)c1ccc(OCC(COc2ccc(C(C)(C)C)cc2)(COc2ccc(C(C)(C)C)cc2)COc2ccc(C(C)(C)C)cc2)cc1
inactive: dose: 7.5 mg/kg/injection, schedule: Q01DX009 (ip), vehicle: saline with Tween-80 98 % of control | dose: 15.0 mg/kg/injection, schedule: Q01DX009 (ip), vehicle: saline with Tween-80 95 % of control | dose: 30.0 mg/kg/injection, schedule: Q01DX009 (ip), vehicle: saline with Tween-80 93 % of control
